Activity calls are given as the source filed them.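 The calls were made as follows: active = compounds giving half or more protection of infected cells from virus-caused growth loss, again on retest; inactive = the rest.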
Tested on: CEM cells HIV-1 protection, formazan growth assay
Assay: NCI AIDS Antiviral Assay
Settings: for IC50: measured here: growth of uninfected CEM cells
Outline: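 Human CEM cells, uninfected and HIV-1-infected, received five drug concentrations, and growth was read by soluble formazan assay. Compounds giving at least 50% protection were retested; reproducible 100% protection defined confirmed active.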

| SMILES | EC50 [µM] | IC50 [µM] | outcome |
| --- | --- | --- | --- |
| CCCCCCCCCCCCCCCCP(=O)(O)OCC(N)C(=O)O (centres undefined) | > 200 | 95.5 | – |
| COC(=O)[C@H]1C2c3ccccc3-c3ccccc3C2(OC(C)=O)[C@@]1(Cl)C(=O)OC (some centres undefined) | > 43.7 | 6.31 | – |
| CC(=O)OC1CCn2nnc(CO[Si](C)(C)C(C)(C)C)c21 (centres undefined) | – | – | inactive |
| CC12Nc3ccccc3N1C(=O)c1ccccc12 (centres undefined) | > 200 | 107 | – |
| N.N.O=N[O-].O=N[O-].O=N[O-].O=N[O-].[Co+3].[Cs+] | – | – | inactive |
| CCN(CC)CCCNc1ccc([N+](=O)[O-])c2nc3ccc(OC)cc3c(NCCCN(CC)CC)c12 | > 50.1 | 0.234 | – |
| COC(=O)C1(CC(=O)OCc2ccccc2)NCCc2c1[nH]c1ccccc21 (centres undefined) | > 3.31 | > 3.31 | – |
| CCOc1ccc2ccccc2c1NC1=NCCO1 | > 200 | 107 | – |
| O=S(=O)(Oc1ccccn1)c1ccc(Br)cc1 | > 200 | > 200 | – |
| O=P(O)(O)CCCNO | > 200 | > 200 | – |
| CC1=CC(=C(c2ccc(N)c(S(=O)(=O)O)c2)c2ccc(N)c(S(=O)(=O)O)c2)C=C(S(=O)(=O)O)C1=N | – | – | inactive |
| Cc1ccc(-n2cnc(C(=N)C#N)c2N)cc1 | > 200 | 123 | – |
| CC(=O)N1CC(=O)N2C(=O)/C(=C/c3ccc(Cl)cc3)N=C12 | > 63.1 | 6.92 | – |
| O=c1[nH][nH]c(=O)c2[nH]cnc12 | – | – | inactive |
| CN(NC(=O)c1cccs1)C1=NCCCCN1 | > 200 | > 200 | – |
| O=C(Nc1ccccc1C(=O)NCCCO)/C(=C/c1ccccc1O)NC(=O)c1ccccc1 | > 200 | > 200 | – |
| O=S(=O)([O-])[O-].O=c1[nH]cnc2nc[n-]c12.[Cu+2].[OH3+].[OH3+] | > 10.7 | > 10.7 | – |
| O=[N+]([O-])C(=C(NCc1ccccc1)NCc1ccccc1)C(Cl)=C(Cl)Cl | > 200 | 35.5 | – |
| COc1ccc(-c2sc(/N=C/c3ccc(N(C)CCC#N)cc3)c(C#N)c2C)cc1OC | > 501 | 339 | – |
| C[C@]12CCC3c4ccc(OS(=O)(=O)O)cc4CC[C@H]3C1CC[C@@H]2O (some centres undefined) | – | – | inactive |
| COC(=O)C1c2c(C)cc3n2C(C=C(C)C3)C1C(=O)OC (centres undefined) | 75.9 | 107 | – |
| O=C1/C(=C/c2cccc(Cl)c2)CCc2ccccc21 | > 10 | > 10 | – |

| SMILES | EC50 [µM] | IC50 [µM] | outcome |
| --- | --- | --- | --- |
| CC1(C)C=Cc2c(ccc3c(=O)c(-c4ccccc4)coc23)O1 | > 100 | > 100 | – |
| CC(=O)NC(CCCCN(Cc1ccccc1)C(=O)NCCCl)C(=O)NCc1ccccc1 (centres undefined) | > 525 | 355 | – |
| O=C(OCc1ccccc1)N1C[C@@H](OCc2ccccc2)[C@@H](OCc2ccccc2)[C@H]1CO | > 200 | 10.7 | – |
| CC1CSC(=S)N1C(=O)N1C(=S)SCC1C (centres undefined) | – | – | inactive |
| O=C(OC[C@H]1C[C@H]2C(=O)OCCC[C@H]2O1)c1ccccc1 | > 200 | > 200 | – |
| Cc1cccc(NC(=O)Nc2ccccc2F)n1 | > 200 | > 200 | – |
| CC(=O)C1C(c2ccccc2)C2(C)OC(=O)C(C#N)C12C (centres undefined) | – | – | inactive |
| COc1ccc(/C(Br)=C2\OC(=O)c3ccccc32)cc1 | > 200 | > 200 | – |
| COC(=O)C1ON(C(=O)c2ccccc2)C(C)C2OC12 (centres undefined) | > 324 | > 324 | – |
| O=C(Nc1ccc(C2=NCCN2)cc1)c1ccc(C(=O)Nc2ccc(C3=NCCN3)cc2)c(F)c1 | 120 | > 200 | – |
| Cc1n(Cc2ccccc2)nc2sc(N)n[n+]12 | > 200 | 64.6 | – |
| Cc1csc2nc(-c3ccccc3)c(/C=N/NC(=O)CN(C)C)n12 | – | – | inactive |
| C=C1C(=O)O[C@H]2C3C(=C(C)CC[C@@H]12)C(=O)[C@@H]1OC31C (some centres undefined) | > 200 | 0.676 | – |
| Cc1c(C)n(-c2ccccc2)c2nc(S(C)=O)nc(S(C)=O)c12 (centres undefined) | > 20 | 1.35 | – |
| COC(=O)c1cc(C(CCl)c2cc(C(=O)OC)c(O)c(Br)c2C)c(C)c(Br)c1O | – | – | inactive |
| CC1=N/C(=C\c2ccco2)C(=O)O1 | > 537 | > 537 | – |
| CN=S(=O)(c1ccccc1)C1(C)CC(C)=C(C)CS1=O (centres undefined) | > 200 | 132 | – |
| NCCN(CCN(C(=O)Nc1ccccc1)c1ccccc1)C(=O)Nc1ccccc1 | > 200 | 35.5 | – |
| N#CC(C(=N/O)/C(=N/O)C(C#N)c1ccc(Cl)cc1)c1ccc(Cl)cc1 (centres undefined) | > 468 | 178 | – |
| COC(=O)c1cc(C(=CCCOS(C)(=O)=O)c2cc(Cl)c(OC)c(C(=O)OC)c2)cc(Cl)c1OC | > 200 | 14.5 | – |
| CC(=O)OCC1OC(OC(C)=O)C(NC(=O)CI)C(OC(C)=O)C1OC(C)=O (centres undefined) | > 490 | 2.57 | – |
| N#CCCC[P+](c1ccccc1)(c1ccccc1)c1ccccc1 | > 200 | > 200 | – |
